Experimental data as given in publication PMC9188596, “Structural basis of resistance to herbicides that target acetohydroxyacid synthase” (Nature Communications, 2022).
Where “and” joins values, the source holds several entries; their conditions need not be identical. Identical values can stand only once.

Assays:
WT AtAHAS [1] = target: T1, WT AtAHAS (Arabidopsis thaliana, UniProt P17597); format: biochemical
Experimental: (§1) Standard assays were performed using a continuous spectrophotometric method measuring the disappearance of pyruvate. The standard buffer contained 50 mM potassium phosphate, pH 7.2, 1 mM ThDP, 10 mM MgCl2, and 10 µM FAD. The concentration of pyruvate was in the range 100–160 mM, as described in the text, methods, or figure legends.
(§2) AtAHAS was assayed in the standard assay buffer containing 160 mM pyruvate, at 30 °C. For AtAHAS activation the progress curve corresponding to the lag-phase was fitted to Eq. (8) of Lonhienne et al.[14]. For the time dependent accumulative inhibition of AtAHAS the progress curves were fitted to Equation 9 of Lonhienne et al.[12].
(§3) Supplementary Figure 8. Measurement of the rate constants of accumulative inhibition for WT AtAHAS and its mutants. The progress curves were fitted to the equation of accumulative inhibition (Equation 7 2). The rate constants of enzyme inactivation ( kiapp) and enzyme recovery (k3) were measured in triplicate. Source data are provided with this paper.

AtAHAS P197T mutant [2] = target: T2, AtAHAS P197T mutant (Arabidopsis thaliana, UniProt P17597, P197T); experiment: biochemical
Experimental: as §1
(§4) Supplementary Figure 6. Measurement of the Ki values for WT AtAHAS and the mutants.
(§5) The error bars represent the standard error of the mean of two independent replicates. [I] =
(§6) inhibitor concentration. Source data are provided with this paper.
(§7) (1 picture or pasted object on this page, not shown here)

AtAHAS W574L mutant [3] = target: T3, AtAHAS W574L mutant (Arabidopsis thaliana, UniProt P17597, W574L); experiment: biochemical
Experimental: as §1, §4, §5, §6, §7

AtAHAS S653T mutant [4] = target: T4, AtAHAS S653T mutant (Arabidopsis thaliana, UniProt P17597, S653T); experiment: biochemical; settings: Ki, S653T mutant; ± standard error of the mean
Experimental: as §1, §4, §5, §6, §7

AtAHAS P197L mutant [5] = target: T5, AtAHAS P197L mutant (Arabidopsis thaliana, UniProt P17597, P197L); experiment: biochemical
Experimental: as §1, §4, §5, §6, §7

WT AtAHAS [6] = target: T1, WT AtAHAS; experiment: Ki of herbicides, continuous spectrophotometric AHAS assay; format: biochemical; settings: Ki, WT AtAHAS; ± standard error of the mean
Experimental: as §1, §4, §5, §6, §7

AtAHAS P197T mutant [7] = target: T2, AtAHAS P197T mutant; format: biochemical; settings: P197T, NAI = no accumulative inhibition detected
Experimental: as §1, §2
as §3, with “paper. […]” for “paper.”

AtAHAS W574L mutant [8] = target: T3, AtAHAS W574L mutant; format: biochemical; settings: NAI = no accumulative inhibition detected
Experimental: as §1, §2
as §3, with “paper. […]” for “paper.”

AtAHAS S653T mutant [9] = target: T4, AtAHAS S653T mutant; format: biochemical
Experimental: as §1, §2
as §3, with “paper. […]” for “paper.”

AtAHAS P197L mutant [10] = target: T5, AtAHAS P197L mutant; format: biochemical; settings: NAI = no accumulative inhibition detected
Experimental: as §1, §2
as §3, with “paper. […]” for “paper.”

AtAHAS P197T mutant [11] = target: T2, AtAHAS P197T mutant; experiment: Inhibition of AHAS activity by ubiquinone Q0; format: biochemical; settings: read-out: % inhibition of AHAS activity by 0.5 mM Q0
Experimental: (§8) Next, we investigated how the mutants responded to regulation by redox signaling molecules using ubiquinone Q0 (Q0) as an example[14].
(§9) Supplementary Figure 5. Inhibition of WT AtAHAS and the mutants by Q0. AtAHAS was incubated with 100 mM pyruvate at 30°C. After reaching full activation, the inhibition reaction was initiated by addition of 0.5 mM Q0 to the sample cell. After seven minutes incubation with Q0, 1 mM DTT was added to reduce the remaining Q0, triggering re-activation of the enzyme.
(§10) Source data are provided with this paper.
as §7

AtAHAS W574L mutant [12] = target: T3, AtAHAS W574L mutant; experiment: Inhibition of AHAS activity by ubiquinone Q0; format: biochemical; settings: read-out: % inhibition of AHAS activity by 0.5 mM Q0
Experimental: as §8, §9, §10, §7

AtAHAS S653T mutant [13] = target: T4, AtAHAS S653T mutant; experiment: Inhibition of AHAS activity by ubiquinone Q0; format: biochemical; settings: read-out: % inhibition of AHAS activity by 0.5 mM Q0
Experimental: as §8, §9, §10, §7

AtAHAS P197L mutant [14] = target: T5, AtAHAS P197L mutant; experiment: Inhibition of AHAS activity by ubiquinone Q0; format: biochemical; settings: read-out: % inhibition of AHAS activity by 0.5 mM Q0
Experimental: as §8, §9, §10, §7

WT AtAHAS [15] = target: T1, WT AtAHAS; experiment: Inhibition of AHAS activity by ubiquinone Q0; format: biochemical; settings: read-out: % inhibition of AHAS activity by 0.5 mM Q0
Experimental: as §8, §9, §10, §7

[16] = individual replicate of triplicate
[17] = S653T, individual replicate of triplicate

With COc1cc(OC)nc(NC(=O)NS(=O)(=O)N(C)S(C)(=O)=O)n1 [AS, amidosulfuron] the “kiapp/k3 (efficiency of accumulative inhibition)” value (WT AtAHAS [1]) was 20, the “k3 (rate of recovery)” value (WT AtAHAS [1]; 160 mM pyruvate, 30 °C, ± SEM) was 0.02 ± 0.001 min⁻¹ and the “kiapp (apparent rate of enzyme inactivation)” value (WT AtAHAS [1]; 160 mM pyruvate, 30 °C, ± SEM) was 0.39 ± 0.06 min⁻¹. The “k3, single progress curve (Supplementary Figure 8)” value (WT AtAHAS [1]; [16]) was 0.021 min-1 and 0.02 min-1 (2×), the “kiapp, single progress curve (Supplementary Figure 8)” value (WT AtAHAS [1]; [16]) was 0.34 min⁻¹ and 0.46 min⁻¹ and 0.36 min⁻¹ and the Ki (AtAHAS P197T mutant [2]; Ki (Supplementary Figure 6), P197T, fit of % activity remaining vs [I], two independent replicates) was 61.4 ± 8.92 µM. It also gave a Ki (AtAHAS P197T mutant [2]; Ki, P197T mutant, ± standard error of the mean) of 61.4 ± 8.9 µM, a Ki (AtAHAS W574L mutant [3]; Ki (Supplementary Figure 6), W574L, fit of % activity remaining vs [I], two independent replicates) of 871 ± 66.5 µM and a Ki (AtAHAS W574L mutant [3]; Ki, W574L mutant, ± standard error of the mean) of 870 ± 60 µM. It also gave a Ki (AtAHAS S653T mutant [4]) of 0.492 ± 0.025 µM, a Ki (AtAHAS P197L mutant [5]; Ki (Supplementary Figure 6), P197L, fit of % activity remaining vs [I], two independent replicates) of 93.5 ± 17.1 µM and a Ki (AtAHAS P197L mutant [5]; Ki, P197L mutant, ± standard error of the mean) of 93.5 ± 17.1 µM. The Ki (WT AtAHAS [6]) was 4.2 ± 0.6 µM, the “k3 (rate of recovery)” value (AtAHAS P197T mutant [7]; 160 mM pyruvate, 30 °C) was “NAI” and the “kiapp (apparent rate of enzyme inactivation)” value (AtAHAS P197T mutant [7]; 160 mM pyruvate, 30 °C) was “NAI”. For the same compound, the “kiapp/k3 (efficiency of accumulative inhibition)” value (AtAHAS P197T mutant [7]) was “NAI”, the “k3 (rate of recovery)” value (AtAHAS W574L mutant [8]; 160 mM pyruvate, 30 °C) was “NAI” and the “kiapp (apparent rate of enzyme inactivation)” value (AtAHAS W574L mutant [8]; 160 mM pyruvate, 30 °C) was “NAI”. For the same compound, the “kiapp/k3 (efficiency of accumulative inhibition)” value (AtAHAS W574L mutant [8]) was “NAI”, the “kiapp/k3 (efficiency of accumulative inhibition)” value (AtAHAS S653T mutant [9]; S653T) was 95 and the “efficiency of accumulative inhibition (kiapp/k3) compared to WT (in words)” value (AtAHAS S653T mutant [9]; S653T vs WT) was “increased”. The “k3 (rate of recovery)” value (AtAHAS S653T mutant [9]; S653T, 160 mM pyruvate, 30 °C, ± SEM) was 0.02 ± 0.002 min⁻¹, the “k3, single progress curve (Supplementary Figure 8)” value (AtAHAS S653T mutant [9]; [17]) was 0.02 min⁻¹ and 0.023 min⁻¹ and 0.021 min⁻¹ and the “kiapp, single progress curve (Supplementary Figure 8)” value (AtAHAS S653T mutant [9]; [17]) was 1.93 min⁻¹ and 1.94 min⁻¹ and 2.21 min⁻¹. The “k3 (rate of recovery)” value (AtAHAS P197L mutant [10]; 160 mM pyruvate, 30 °C) was “NAI”, the “kiapp (apparent rate of enzyme inactivation)” value (AtAHAS P197L mutant [10]; 160 mM pyruvate, 30 °C) was “NAI” and the “kiapp/k3 (efficiency of accumulative inhibition)” value (AtAHAS P197L mutant [10]) was “NAI”.

With COC1=C(OC)C(=O)C(C)=CC1=O [Q0, ubiquinone Q0] the inhibition at 500 µM (AtAHAS P197T mutant [11]) was 91%, the inhibition at 500 µM (AtAHAS W574L mutant [12]) was 97% and the inhibition at 500 µM (AtAHAS S653T mutant [13]) was 85%. The inhibition at 500 µM (AtAHAS P197L mutant [14]) was 89% and the inhibition at 500 µM (WT AtAHAS [15]) was 82%.
